These results are taken from publication PMC7435865, “Antinociceptive and Cytotoxic Activity of Opioid Peptides with Hydrazone and Hydrazide Moieties at the C-Terminus” (Molecules, 2020).

“And” between values parts separate entries of the source, which are not always exact repeats. Equal entries are not always repeated. Where two headings read alike, the source gives them in different places. [ ]: non-standard residue; d: D form.

One assay has as its system MOR. To be noted: cited from earlier work.
The target of a further assay is DOR. Also noted: method as in PMID 17927164. Conditions: cited from earlier work.
Another assay relates to male Wistar rats. Also noted: method as in PMID 28105278. To be noted: already published ref 33, cited from earlier work.
Assay [1] relates to MeW155 human melanoma cells. The experiment in a line: melanoma cell number in culture after incubation with compound. The format is cell-based. To be noted: 50 µM, 96 h incubation. As to the method:
The determination was performed by counting the cells of the MeW155 cell line after incubating them with 50 µM of the tested compounds.
The cells were plated in 24-well plates (5000 cells per well) and incubated for 24 h in Eagle’s medium containing 10% fetal bovine serum and 1% solution of penicillin and streptomycin. […] Control cells were treated with 1% DMSO only. After 96 h of incubation, the cell suspension was first lysed in lysis buffer (ReagentA, ChemoMetec A/S) and then stabilized in stabilization buffer (ReagentB, ChemoMetec A/S). The number of […] was quantified in a propidium iodide cassette with the use of a NucleoCounter® NC-100™ (ChemoMetec A/S) cell counter. The tests were performed in triplicate. The results were normalized so that the values obtained for the control were 100%.

For a further assay, the target named is T1, µ opioid receptor (MOR) (Rattus norvegicus, UniProt P33535).
T1 construct: Membrane fractions of rat brain homogenate were incubated at 25 °C for 60 min in the presence of radioligands; from tissue; host or cells: rat brain (membrane fractions of homogenate)
T1 sequence (P33535 whole entry): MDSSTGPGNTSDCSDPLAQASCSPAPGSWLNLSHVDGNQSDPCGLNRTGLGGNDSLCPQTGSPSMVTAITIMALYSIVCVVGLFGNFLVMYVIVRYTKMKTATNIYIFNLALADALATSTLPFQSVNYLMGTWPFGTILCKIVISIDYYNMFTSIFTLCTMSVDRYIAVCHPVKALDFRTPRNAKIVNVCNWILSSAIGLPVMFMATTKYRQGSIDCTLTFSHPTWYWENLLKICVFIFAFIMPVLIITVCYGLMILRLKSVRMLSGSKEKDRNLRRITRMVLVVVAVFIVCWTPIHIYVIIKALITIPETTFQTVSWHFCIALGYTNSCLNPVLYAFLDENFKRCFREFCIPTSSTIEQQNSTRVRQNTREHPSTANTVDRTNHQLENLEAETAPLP
Also noted: method as in PMID 28105278. Conditions: rat brain homogenate; previously reported ref 33; read-out: MOR IC50 ± SEM; cited from earlier work.

In the case of “H2N-Tyr-D-Ala-Gly-Phe-NH-NH←Phe←Gly←D-Ala←Tyr-NH2 [biphalin]”, in the assay on MOR, the IC50 is 1.4 nM.
For the substance H-Tyr-D-Ala-Gly-Phe-NH2, the values for the Ki on MOR (read-out: MOR Ki) and on DOR were 2.8 nM and 300 nM, respectively.
“H-Tyr-D-Ala-Gly-Phe-NH-N=CH-3,5-(CF3)2Ph [1a]”: the “antinociceptive effect, % of maximal possible effect” value in the assay on male Wistar rats (0.5 nmol/rat i.t., 15 min after injection) is ~ 80 % MPE and 80 ± 9 % MPE. In the assay on male Wistar rats (0.5 nmol/rat i.t.), the “area under the time course curve (AUC) of analgesic effect” value was 4483 ± 592 units. Moreover, in the assay on male Wistar rats (tail flick, i.t.), the “ED50 ± SEM” value is reported as 0.18 ± 0.05 nmol/rat. Besides, in assay [1], the “effect on number of melanoma cells (in words)” value is recorded as “significantly decrease the number of melanoma cells” and the “number of MeW155 cells, % of the control value” is 39 ± 4 % of the control. The IC50 in the assay with µ opioid receptor (MOR) was 12.7 ± 0.75 nM.
With H-Tyr-D-Ala-Gly-Phe-NH-NH2, in the assay on MOR, the IC50 is 4.7 nM.
As to H-Tyr-D-Ala-Trp-Cyn, the IC50 in the assay on MOR was 77.6 nM.
For H-Tyr-Pro-Phe-NH2, on MOR (read-out: MOR inhibition constant Ki), the Ki is 46.3 nM.
Turning to H-Tyr-[dA]-Trp-OH, the IC50 with MOR was 977 nM.
On to H-Y[dA]FF-NH2 [TAPP], for which the IC50 with MOR (determined in the authors' laboratory) was 5.1 nM.
For H-Y[dA]GW-NH2, in the assay on MOR (versus H-Tyr-D-Ala-Gly-Phe-NH2), the “times weaker as a MOR binder than the [Phe4]-variant” value is on record as “about 2 times”.
As to Tyr-Pro-Phe-Phe-NH2 [endomorphin-2], the IC50 in the assay on MOR was 3.9 nM.

By IC50 is commonly meant the concentration needed to halve the response being measured. The Ki is a measure of affinity in units of concentration, obtained from inhibition or displacement.
